The text below walks through data of PubChem BioAssay AID330 (DTP/NCI, 2004).

The test system of the assay is P388 leukemia ip, CD2F1 mice, survival T/C. The experiment in a line: NCI In Vivo Anticancer Drug Screen. Data for tumor model P388 Leukemia (intraperitoneal) in CD2F1 (CDF1) mice. The note with it: endpoint: median survival time, higher = longer survival. The essentials: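 Mice carrying the transplanted tumor received test compound or vehicle. Survival was recorded in each group, and the value is the treated-group measurement divided by that of the vehicle-treated control group.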

Where [1] appears, read: dose: 6.25 mg/kg/injection, schedule: Q01DX009 (ip), vehicle: saline.
[2] abbreviates: dose: 60.0 mg/kg/injection, schedule: Q01DX005 (ip), vehicle: saline with Tween-80.
The mark [3] stands for this setting: dose: 120.0 mg/kg/injection, schedule: Q01DX005 (ip), vehicle: saline with Tween-80.
Where [4] appears, read: dose: 240.0 mg/kg/injection, schedule: Q01DX005 (ip), vehicle: saline with Tween-80.
Setting [5] is: dose: 50.0 mg/kg/injection, schedule: Q01DX009 (ip), vehicle: Klucel (hydroxypropylcellulose) (HPC).
Setting [6] is: dose: 50.0 mg/kg/injection, schedule: Q01DX005 (ip), vehicle: saline with Tween-80.
Setting [7] is: dose: 100.0 mg/kg/injection, schedule: Q01DX005 (ip), vehicle: saline with Tween-80.
Where [8] appears, read: dose: 200.0 mg/kg/injection, schedule: Q01DX005 (ip), vehicle: saline with Tween-80.
Where [9] appears, read: dose: 50.0 mg/kg/injection, schedule: Q04DX003 (ip), vehicle: saline with Tween-80.
Setting [10] is: dose: 100.0 mg/kg/injection, schedule: Q04DX003 (ip), vehicle: saline with Tween-80.

“And” between values parts separate entries of the source, which are not always exact repeats. Equal entries are not always repeated. Toxic doses and inconclusive results are not listed.

`COCCNCCN1CCN(CCCN2c3ccccc3Sc3ccc(C(F)(F)F)cc32)CC1`: the T/C (dose: 1.56 mg/kg/injection, schedule: Q01DX009 (ip), vehicle: saline) was 104 % of control; the T/C (dose: 3.12 mg/kg/injection, schedule: Q01DX009 (ip), vehicle: saline) was 100 % of control; the T/C under setting [1] is 107 % of control.

Consider `Cc1onc(-c2c(F)cccc2Cl)c1C(=O)OCc1c(F)cccc1Cl`, for which the T/C under setting [2] was 99 % of control, the T/C under setting [3] is 97 % of control and the T/C under setting [4] was 97 % of control.

Take `CC(Br)(C(Br)c1ccccc1)[N+](=O)[O-]` (centres undefined): the T/C is 110 % of control (dose: 25.0 mg/kg/injection, schedule: Q01DX009 (ip), vehicle: Klucel (hydroxypropylcellulose) (HPC)) and 108 % of control under setting [5].

`CC(C)CNCC(=O)Nc1ccc(-c2ccc(NC(=O)CNCC(C)C)cc2)cc1`: the T/C (dose: 50.0 mg/kg/injection, schedule: Q01DX005 (ip), vehicle: Klucel (hydroxypropylcellulose) (HPC)) is 97 % of control; the T/C (dose: 100.0 mg/kg/injection, schedule: Q01DX005 (ip), vehicle: Klucel (hydroxypropylcellulose) (HPC)) was 97 % of control; the T/C (dose: 200.0 mg/kg/injection, schedule: Q01DX005 (ip), vehicle: Klucel (hydroxypropylcellulose) (HPC)) is 95 % of control.

As to `COc1cc2c(c(OC)c1OC)-c1ccc(OC)c(=O)cc1[C@@H](NC(=O)c1ccccc1)CC2`, the T/C runs as follows: (dose: 0.5 mg/kg/injection, schedule: Q01DX009 (ip), vehicle: Klucel (hydroxypropylcellulose) (HPC)) 156 % of control; (dose: 0.5 mg/kg/injection, schedule: Q01DX009 (ip), vehicle: saline with Tween-80) 121 % of control; (dose: 0.63 mg/kg/injection, schedule: Q01DX009 (ip), vehicle: distilled water + Tween-80) 154 % of control; (dose: 1.0 mg/kg/injection, schedule: Q01DX009 (ip), vehicle: Klucel (hydroxypropylcellulose) (HPC)) 182 % of control; (dose: 1.25 mg/kg/injection, schedule: Q01DX009 (ip), vehicle: distilled water + Tween-80) 218 % of control; (dose: 2.0 mg/kg/injection, schedule: Q01DX009 (ip), vehicle: saline with Tween-80) 165 % of control. Further, the T/C was 261 % of control (dose: 2.5 mg/kg/injection, schedule: Q01DX009 (ip), vehicle: distilled water + Tween-80); 86 % of control (dose: 4.0 mg/kg/injection, schedule: Q01DX009 (ip), vehicle: saline with Tween-80); 109 % of control (dose: 5.0 mg/kg/injection, schedule: Q04DX003 (ip), vehicle: saline sonified); 186 % of control (dose: 5.0 mg/kg/injection, schedule: Q04DX003 (ip), vehicle: saline with Tween-80); 154 % of control (dose: 7.5 mg/kg/injection, schedule: Q04DX003 (ip), vehicle: saline sonified).

Regarding `Cc1ncc(/C=N/O)n1Cc1ccccc1`, the T/C is, setting by setting: under setting [2], 99 % of control; under setting [3], 93 % of control; under setting [4], 90 % of control.

As to `O=C1OC(=O)C2C3C=CC(C4C=C(c5ccccc5)C43)C12` (centres undefined), the T/C is 106 % of control (dose: 50.0 mg/kg/injection, schedule: Q01DX009 (ip), vehicle: saline); 92 % of control (dose: 100.0 mg/kg/injection, schedule: Q01DX009 (ip), vehicle: saline); 107 % of control (dose: 200.0 mg/kg/injection, schedule: Q01DX009 (ip), vehicle: saline).

With `CCOc1ccc(/C=C/C(C)=N/NC(N)=Nc2ccc(Cl)cc2)cc1`, the T/C by setting is: (dose: 12.5 mg/kg/injection, schedule: Q01DX005 (ip), vehicle: saline with Tween-80) 96 % of control; (dose: 25.0 mg/kg/injection, schedule: Q01DX005 (ip), vehicle: saline with Tween-80) 97 % of control; under setting [6], 107 % of control and 97 % of control.

As for `O=C(O)CCC(=O)NC1C(NNC(=O)c2cccnc2)OC(CO)C(O)C1O` (centres undefined), the T/C was 101 % of control under setting [6], 95 % of control under setting [7] and 101 % of control under setting [8].

On to `CNc1nc(-c2ccc(OC)cc2)c(-c2ccc(OC)cc2)[nH]1`, for which the T/C (dose: 25.0 mg/kg/injection, schedule: Q04DX002 (ip), vehicle: saline with Tween-80) is 108 % of control and 111 % of control; the T/C (dose: 50.0 mg/kg/injection, schedule: Q04DX002 (ip), vehicle: saline with Tween-80) was 107 % of control; the T/C (dose: 100.0 mg/kg/injection, schedule: Q04DX002 (ip), vehicle: saline with Tween-80) was 99 % of control.

Consider `CCCCCCCCCCCCCCCC[N+](C)(C)CCSC(C)=O`, for which the T/C is 100 % of control (dose: 0.78 mg/kg/injection, schedule: Q01DX009 (ip), vehicle: acetone); 104 % of control (dose: 1.56 mg/kg/injection, schedule: Q01DX009 (ip), vehicle: acetone); 104 % of control (dose: 3.12 mg/kg/injection, schedule: Q01DX009 (ip), vehicle: acetone); 107 % of control (dose: 6.25 mg/kg/injection, schedule: Q01DX009 (ip), vehicle: acetone).

With `Cc1nn(-c2ccccc2)c2c1C(c1ccccc1)C(C#N)=C(N)O2` (centres undefined), the T/C reads like this: under setting [5], 100 % of control; (dose: 100.0 mg/kg/injection, schedule: Q01DX009 (ip), vehicle: Klucel (hydroxypropylcellulose) (HPC)) 100 % of control; (dose: 200.0 mg/kg/injection, schedule: Q01DX009 (ip), vehicle: Klucel (hydroxypropylcellulose) (HPC)) 100 % of control.

As for `CN(C)CCCN1c2ccc(O)cc2Sc2ccc(Cl)cc21`, the T/C is 100 % of control (dose: 25.0 mg/kg/injection, schedule: Q04DX003 (ip), vehicle: saline with Tween-80); 95 % of control under setting [9]; 95 % of control under setting [10].

Take `C=C1C(=O)OC2CC3(C)OC3CC(O)/C(C)=C/C(OC(=O)C(C)C)C12` (centres undefined): the T/C is 110 % of control under setting [1]; 112 % of control (dose: 12.5 mg/kg/injection, schedule: Q01DX009 (ip), vehicle: saline); 121 % of control (dose: 25.0 mg/kg/injection, schedule: Q01DX009 (ip), vehicle: saline).

For the compound `CCOC(=O)Cc1csc(=S)n1CC`, the T/C reads like this: under setting [6], 98 % of control; under setting [7], 98 % of control; under setting [8], 98 % of control.

As to `COc1cc2cc(c1Cl)N(C)C(=O)CC(OC(=O)C(C)NC(=O)C(C)C)C1(C)OC1C(C)C1CC(O)(NC(=O)O1)C(OC)/C=C/C=C(C)C2OC` (centres undefined), under “dose: 32.0 micrograms/kg/injection, schedule: Q01DX009 (ip), vehicle: distilled water + alcohol”, the T/C was 159 % of control.

As for `COc1cccc2c1C(=O)c1c(O)c3c(c(O)c1C2=O)CC(O)(C(O)CO)CC3OC1CC(N2CCOCC2C#N)C(O)C(C)O1` (centres undefined), the T/C is, setting by setting: (dose: 0.2 mg/kg/injection, schedule: Q04DX003 (ip), vehicle: water) 176 % of control; (dose: 0.8 mg/kg/injection, schedule: Q04DX003 (ip), vehicle: water) 89 % of control; (dose: 6.25 micrograms/kg/injection, schedule: Q04DX003 (ip), vehicle: water) 101 % of control; (dose: 12.5 micrograms/kg/injection, schedule: Q04DX003 (ip), vehicle: water) 107 % of control and 113 % of control; (dose: 25.0 micrograms/kg/injection, schedule: Q04DX003 (ip), vehicle: water) 106 % of control and 117 % of control; (dose: 50.0 micrograms/kg/injection, schedule: Q04DX003 (ip), vehicle: water) 119 % of control and 120 % of control. For the same compound, the T/C is, setting by setting: (dose: 100.0 micrograms/kg/injection, schedule: Q04DX003 (ip), vehicle: water) 124 % of control; (dose: 200.0 micrograms/kg/injection, schedule: Q04DX003 (ip), vehicle: water) 124 % of control.

In the case of `CC1(C)OCC2OC=CC(=O)C2O1` (centres undefined), the T/C was 108 % of control under setting [9]; 101 % of control under setting [10]; 108 % of control (dose: 100.0 mg/kg/injection, schedule: Q04DX003 (ip), vehicle: saline); 111 % of control (dose: 200.0 mg/kg/injection, schedule: Q04DX003 (ip), vehicle: saline with Tween-80); 104 % of control (dose: 200.0 mg/kg/injection, schedule: Q04DX003 (ip), vehicle: saline); 120 % of control (dose: 400.0 mg/kg/injection, schedule: Q04DX003 (ip), vehicle: saline with Tween-80). For the same compound, the T/C (dose: 400.0 mg/kg/injection, schedule: Q04DX003 (ip), vehicle: saline) was 124 % of control.
